Source: publication PMC5996347, “2-Mercapto-Quinazolinones as Inhibitors of Type II NADH Dehydrogenase and Mycobacterium tuberculosis: Structure–Activity Relationships, Mechanism of Action and Absorption, Distribution, Metabolism, and Excretion Characterization” (ACS Infectious Diseases, 2018)
“Also recorded” adds a separate entry of the source.

Columns and labels:
Type in all cases: cell-based, Mycobacterium tuberculosis
[1] = system: ΔndhA mutant
[2] = system: nuoG deletion mutant; conditions: results not shown
[3] = system: anaerobic nonreplicating MTb cells; test: Anaerobic cidal activity on nonreplicating cells

O=C(CSc1nc2ccccc2c(=O)[nH]1)NC1CCCCC1 [Compound 1, N-Cyclohexyl-2-((4-oxo-3,4-dihydroquinazolin-2-yl)thio)acetamide]
Kill of ΔndhA mutant [1]: ~2 log
MIC to nuoG deletion mutant compared with WT [2]: indistinguishable from WT cells
Anaerobic cidal activity / viability of anaerobic nonreplicating cells [3]: Lack of anaerobic cidal activity; also recorded: did not affect viability
